The term melting point denotes the temperature, or range, at which the solid turns liquid. Compound `CC(=O)OCc1ccc(-c2[nH]c(-c3cccc4ccccc34)nc2C(=O)Nc2nccs2)cc1` displayed a melting point of 197 to 199 °C.

In turn, `Cc1onc(-c2ccc(C(F)(F)F)cc2)c1CCC(=O)O` gave a melting point of 138 to 139 °C.

`CC(=O)NNC1=Nc2sc(Cl)cc2C(c2ccccc2F)=NC1` showed a melting point of 207 to 209 °C.

Take `CCOC(=O)Cn1c2c([nH]c(=O)c1=O)CCC1=C2C=C(N)CC1`: the melting point came out at 238 °C.

`O=C1C2=NCCCN2c2cccc(Cl)c21`: the melting point worked out at 170 °C.

`Cc1nnc2n1-c1ccc(Cl)cc1C(c1ccccc1)N2` (centres undefined): the melting point lay within 262 to 265 °C.

For the compound `O=C(O)CCC(=O)c1ccc(-c2ccc(Cl)cc2)o1`, the melting point was 142 to 144 °C.

With `O=C1CC(/C=C/c2ccccc2)=Nc2ccccc2N1Cc1ccccc1`, the melting point was 150 to 151 °C.

Turning to `O=c1ccc2c(=O)c3ccccc3ccc2[nH]1`, the melting point came out at 320 °C.

Compound `Nc1ccc(CCCO)cc1` showed a melting point of 54 to 56 °C.

Compound `O=C(CC(c1ccccc1)c1ccccc1)NC(Cc1ccccc1)C(=O)O` (centres undefined) displayed a melting point of 138 to 140 °C.

`Cc1cc(C(C)(C)CCl)c(C)nn1` displayed a melting point of 57 to 59 °C.

`CCOC(=O)c1c(N2CCN(C(=O)c3cccs3)CC2)c2cc(F)cnc2n(Cc2cccc(F)c2)c1=O` had a melting point of 113 °C.

The compound `Nc1nc(N)c2ncn(C3C=CC(CO)C3)c2n1` (centres undefined) returned a melting point of 152 to 155 °C.

In turn, `CCc1c([N+](=O)[O-])c(C(N)=O)nn1C[C@H]1CCCN1C` yielded a melting point of 111 to 116 °C.

Regarding `Brc1ccc(CSc2nc(-c3ccncc3)ns2)cc1`, the melting point was found to be 132 °C.

`CCOC(=O)c1ccc(NC=CS(=O)(=O)F)cc1` gave a melting point of 110 to 112 °C.

`NC(=O)c1cccc(NC(=O)C(F)(F)F)c1` had a melting point of 262 to 263 °C.

`Cc1ccsc1CN(O)C(N)=O`: the melting point was 110 °C.

`CN1CCc2cc(S(=O)(=O)Nc3cnc4ccc(Cl)cc4n3)ccc21`: the melting point lay within 213 to 214 °C.

For `COC1OCC[C@@H]1NC(=O)[C@H](Cc1ccccc1)NC(=O)OCc1ccccc1` (some centres undefined), the melting point lay within 140 to 142 °C.

In the case of `Oc1cc(-c2ccc(Cl)cc2)[nH]n1`, the melting point is 240 to 241 °C.

Regarding `Cc1sc(C(=O)NN)c(S(N)(=O)=O)c1C#N`, the melting point was in the range of 186 to 191 °C.

As for `O=C(C=Cc1ccccc1)C(Cc1ccccc1)C(=O)C=Cc1ccccc1` (centres undefined), the melting point is 156 to 158 °C.

For the compound `CC(C)(C)OC(=O)C(=[N+]=[N-])C(=O)COCc1ccccc1`, the melting point worked out at 68 °C.

Compound `FCC=Cc1ncn(C(c2ccccc2)(c2ccccc2)c2ccccc2)n1` yielded a melting point of 149 °C.

`Cc1cccc(C)c1NNC(=O)c1cccc2c1CC(N(C(=O)C(F)(F)F)C1CC1)CO2` (centres undefined): the melting point was in the range of 146 to 149 °C.

Compound `C[Si](C)(C)CCCCCCCCCCCNc1ccc(C(=O)O)cc1` registered a melting point of 121 to 122 °C.

On to `COc1ccc(F)c2c1C(=O)c1ccncc1C2=O`, for which the melting point was more than 220 °C.

As for `O=C(OC1CCCCC1)c1ncn2c1[C@@H]1CCCN1C(=O)c1c(Br)cccc1-2`, the melting point was 167 to 168 °C.

`COc1ccc2c(CC3=C(CC(=O)O)CCC3=O)cccc2c1C(F)(F)F` came in with a melting point of 59 to 61 °C.

As to `CC(=O)Nc1ccc(S(=O)(=O)Nc2ccn(C3CCCCC3)c(=O)n2)cc1`, the melting point is 219 to 234 °C.

In turn, `CCOC(=O)C(=CN(C)C)C(=O)c1ccc(Br)cc1Cl` had a melting point of 100 to 101 °C.

In turn, `O=C(O)C1=Cc2ccc(C(F)(F)F)cc2Oc2ccccc21` showed a melting point of 180 °C.

As to `O=c1[nH]c2cnc(-c3ccccc3)nc2n1Cc1ccccc1`, the melting point is 286 to 287 °C.

`O=C1Nc2ccccc2Nc2cscc21` yielded a melting point of 233 to 234 °C.

The compound `C=C(CC)C(=O)c1ccc(OC2(C(=O)O)CCC2)c(Cl)c1Cl` yielded a melting point of 120 °C.

The compound `Cc1c(NC(=O)c2ccc(OCC3CC3)cc2)ccc2cc(CN3CCC(C)(O)CC3)n(C)c12` showed a melting point of 152 to 155 °C.

As for `CCCCOC(=O)c1ccc(OCCCC)c(C(C)=O)c1`, the melting point was 39 to 40 °C.

`O=c1c2cc(F)c(F)cc2n(-c2ccc(F)cc2)c(=O)n1OCc1ccccc1` gave a melting point of 201 to 202 °C.

Compound `CC#CCOc1ccc(S(=O)(=O)C(C(=O)NO)c2ccc(Cl)cc2)cc1` (centres undefined) yielded a melting point of 140 °C.

Regarding `Nc1ccc(C2CCC(=O)CC2)cc1`, the melting point fell in the range of 127 to 128 °C.

Turning to `C=C(Cc1ccccc1)C(O)C(NC=O)C(=O)OCC` (centres undefined), the melting point was in the range of 87 to 89 °C.

The compound `O=C1C2CN(CCc3ccc(Cl)cc3)CC2C(=O)N1c1cc(Cl)cc(Cl)c1` (centres undefined) came in with a melting point of 115 °C.

`N[C@@H]1CN2C(=O)N(c3cc(Cl)cc(Cl)c3)C(=O)[C@@]2(Cc2ccc(Br)cc2)C1` gave a melting point of 64.4 °C.

Compound `Nc1ccc(Sc2cccc3nccn23)cc1` came in with a melting point of 167 to 168 °C.

As to `COC(=O)Cc1ccc(OCCNC(=O)C2Cc3c(OC)cccc3N2S(=O)(=O)c2ccc(-c3cccc(C(F)(F)F)c3)cc2)cc1` (centres undefined), the melting point turned out to be 64 °C.

`N#Cc1ccc(Nc2cccc(I)c2)c(N)c1` registered a melting point of 170 to 172 °C.

The compound `COCCNCc1ccc(-c2cc3ncnc(Nc4ccc5[nH]ccc5c4)c3s2)cc1` came in with a melting point of 170 to 190 °C.

Compound `O=c1c(-c2ccccc2)coc2cc(O)c(Cl)c(Cl)c12` yielded a melting point of more than 290 °C.

With `NC(=O)c1ccc(N2CCN(Cc3cn4ccccc4n3)CC2)cc1`, the melting point lay within 249 to 250 °C.

Turning to `CCOc1c(C#N)cnc2c(NC(=O)c3c(Cl)cccc3Cl)cccc12`, the melting point is 200 to 201 °C.

Take `CCCCCCN(CCCCCC)c1c(N[C@@H](Cc2ccc(NC(=O)c3ccccc3)cc2)C(=O)O)c(=O)c1=O`: the melting point is 95 to 100 °C.

With `CCOC(=O)Cc1cnc(Nc2n[nH]c3ccc(-c4ncccc4Cl)cc23)s1`, the melting point was in the range of 259 to 261 °C.

Turning to `N#Cc1c(N2CCN(Cc3ccccc3)CC2)nn2c(-c3ccncc3)ccnc12`, the melting point was in the range of 193 to 194 °C.

Take `CCOC(=O)c1cnc2c(c1)C(=O)C=CC2=O`: the melting point was determined as 124 °C.

Turning to `COc1ccccc1C1(Cl)C(=O)Nc2cc(C(F)(F)F)c(Cl)cc21` (centres undefined), the melting point was 230 to 231 °C.

`CC(=O)N1CCN(c2nc(N)ncc2Oc2ccc(Cl)cc2)CC1` displayed a melting point of 153 to 157 °C.

`CC(=O)NC1C(O)OC(CO)C(O)C1OC(C)C(=O)NC(C)C(=O)NC(CCC(=O)O)C(N)=O` (centres undefined) had a melting point of 150 to 151 °C.

Consider `CN(c1cc(Cl)ncn1)n1cccc1`, for which the melting point lay within 88 to 89 °C.

`COc1ccc(C(O)c2ccccn2)cc1OC` (centres undefined) returned a melting point of 92 to 94 °C.

`CN1CCC(OC(c2cccc(SCC3=NCCN3)c2)c2nc3ccccc3[nH]2)CC1` (centres undefined) gave a melting point of 62 °C.

For `N#Cc1c(N2CCN(C(=O)c3cccs3)CC2)c2cc(Cl)ccc2n(Cc2ccccc2)c1=O`, the melting point is 266 °C.

Consider `CC1CC(=O)NN=C1c1ccc2c(c1)SCC(=O)N2C` (centres undefined), for which the melting point is 193 to 194 °C.

The compound `COc1ccc(CNc2nc(C#N)ncc2C(=O)c2cc(OC)c(OC)c(OC)c2)cc1Cl` showed a melting point of 140 to 143 °C.

`CC(C)CCS(=O)(=O)NC(=O)/C=C/c1cc(OC(C)C)nn1Cc1ccc(C(F)(F)F)cc1Cl`: the melting point was 139 to 140 °C.

In turn, `CCn1cc(OC(=O)c2ccccc2)c(=O)c2ccccc21` registered a melting point of 190 to 192 °C.

`CN1CCc2cc(O)c(O)c(Sc3ccc(F)cc3)c2CC1` showed a melting point of 105 to 114 °C.

The compound `Cc1ccc(CNc2nc(Nc3cccc(N)c3)nc(OCC(F)(F)F)n2)o1` displayed a melting point of 75 to 77 °C.

The compound `COc1cccc(Cn2cc3c(-c4cccc(C(=O)NCCC#N)c4)cccc3n2)c1` came in with a melting point of 176 to 177 °C.

Turning to `CCCc1c(OCc2ccccc2)ccc2c(=O)ccoc12`, the melting point was in the range of 87.5 to 89 °C.

The compound `O=C(O)Cc1ccc2c(c1)CCc1ccccc1S2` came in with a melting point of 111 to 112 °C.

Turning to `O=C(O)C1CCc2c(c3ccccc3n2C(=O)c2ccc(-c3ccccc3)cc2)C1` (centres undefined), the melting point lay within 212 to 213 °C.

On to `O=S(=O)(Nc1ccccc1OCC1CCN(c2ccncc2)CC1)c1ccc2cc(Br)ccc2c1`, for which the melting point fell in the range of 197 to 200 °C.

On to `Cc1cc(C)cc(Oc2ccc([N+](=O)[O-])cc2S(=O)(=O)N2CCN(C(=O)OC(C)(C)C)CC2)c1`, for which the melting point is 232 to 233 °C.

Compound `O=C(NCCO)c1cccc(-c2cccc3nn(Cc4cccc(C(F)(F)F)c4)cc23)c1` displayed a melting point of 136 to 137 °C.

The compound `CCCc1c(OCc2c(C)ccn3c(=O)c(CC(=O)O)cnc23)ccc(C(C)=O)c1O` showed a melting point of 191 to 193 °C.

On to `Cc1ccc(C)c(NC(=O)NCC2(c3ccccc3)CCCCC2)c1`, for which the melting point is 202 to 203 °C.

Regarding `CCOc1c(Nc2ccc3[nH]cnc3c2)c(=O)c1=O`, the melting point was 243 to 244 °C.

Compound `COc1ccc(C(=O)Nc2nc3ccc(N(C)C)cc3c(NCc3cccs3)c2C#N)cc1` displayed a melting point of 163 °C.

`CCC(CC)(CO)NC(N)=S` showed a melting point of 148 to 151 °C.

As to `O=C(Cc1ccccc1)N[C@@H](Cc1ccc(OCCc2coc(-c3ccccc3)n2)cc1)C(=O)O`, the melting point lay within 146 to 151 °C.

As to `CN(C(=O)c1ccc(N)cc1)[C@@H]1CN(C2CCCCC2)C[C@H]1O` (relative stereo), the melting point lay in the range of 180 to 182 °C.

In turn, `CCOC(CC)c1ccc(Cl)c2nc3n(c12)CCCN3c1ccc(Cl)cc1Cl` (centres undefined) gave a melting point of 108 to 110 °C.

As to `OCc1c(CO)c2sc3ccccc3n2c1-c1ccc(Cl)cc1`, the melting point is 151 to 152 °C.

In turn, `CN(C)CCCN1CCC(O)(c2ccccc2)C(C(=O)c2ccccc2)C1` (centres undefined) gave a melting point of 114 to 116 °C.

Regarding `C#CC1C2=C(c3ccc(OCc4ccccc4)cc3N1C(=O)Oc1ccccc1)C(O[Si](C)(C)C(C)(C)C)CCC2` (centres undefined), the melting point fell in the range of 76.5 to 78.2 °C.

`CC(=O)N[C@H](CO)C(=O)NCc1ccc(N=[N+]=[N-])cc1` showed a melting point of 161 to 163 °C.

`C[C@H](Cc1ccc2oc(C(=O)O)cc2c1)NC[C@H](O)c1csc(C(F)(F)F)n1`: the melting point fell in the range of 168 to 171 °C.

The values above are taken from a melting point compilation (Tetko et al.; mined from patent text by program, amines drawn as free bases though some values may be those of a salt).
